test: in vitro; conditions: human, hela cells, % viability

| SMILES | viability at 28.5 h, 10 µM [%] |
| --- | --- |
| CC1CCCN(c2ncnc3c2[nH]c2ccccc23)C1 (centres unmarked) [CBK287948] | 106 |
| CS(=O)(=O)c1ccc(-c2cnc(N)c(NCc3ccncc3)n2)cc1 [CBK063647] | 105 |
| CCOCCCC(=O)N1CCN(Cc2nnc3n2CCCCC3)CC1 [CBK305298] | 90.9 |
| c1csc(-c2nn3c(Cn4nnc5ccccc54)nnc3s2)c1 [CBK268204] | 87.7 |
| COc1ccc(OC)c(C2C(C(=O)c3ccccc3)=C(O)C(=O)N2CCN2CCOCC2)c1 (centres unmarked) [CBK264748] | 114 |
| CC1(C)N=C(c2ccc(Cl)cc2Cl)C(=S)N1 [CBK288449] | 88.3 |
| O=C(NCc1nnc(-c2cccs2)o1)C1c2ccccc2Oc2ccccc21 [CBK286297] | 94.8 |
| CN(C)CCN(Cc1ccncc1)Cc1cc(F)cc(F)c1 [CBK283096] | 94.9 |
| COC(=O)c1c(NC(=O)c2c(C)c(-c3ccc(Cl)cc3Cl)nc3ccccc23)sc2c1CCC(C)C2 (centres unmarked) [CBK262644] | 82.9 |
| CC(NC(=O)CCc1ccncc1)c1nc2ccccc2s1 (centres unmarked) [CBK281666] | 98.9 |
| C[C@H](Nc1cncc(-c2ccccc2CO)n1)c1ccccc1 [CBK065520] | 116 |
| O=C(NCCc1cccs1)Nc1cccc(CN2CCCCC2)c1 [CBK306882] | 96.1 |
| CN(C(=O)Cn1cc(C(=O)NCC(C)(C)c2ccc(F)cc2)ccc1=O)c1ccccc1 [CBK285662] | 108 |
| Cc1c2cn[nH]c(=O)c2c(C)n1-c1ccccc1 [CBK018349] | 98.3 |
| O=C(Nc1ccccc1Nc1cc(-c2ccccc2)nn1-c1ccccc1)c1ccc(Br)cc1 [CBK261297] | 84.7 |
| CC(=O)NCCC(CN1CCOCC1)([N+](=O)[O-])[N+](=O)[O-] [CBK261338] | 88.7 |
| COc1cccc(CN(C)C2CCN(C)CC2)c1OC [CBK261532] | 97.7 |
| Cc1ccc(CNC(=O)CSc2nc(N)n[nH]2)cc1 [CBK267914] | 103 |
| O=C(c1cc(O)nc2ccccc12)N1CCN(S(=O)(=O)N2CCCC2)CC1 [CBK297898] | 88.6 |
| Cc1nn(CC(=O)NC(C)(C)C)c(=O)c2cc3ccsc3n12 [CBK284082] | 83.2 |
| COC(=O)C1=C(C)N=c2s/c(=C/c3ccc(OC)c(OC(C)=O)c3)c(=O)n2C1c1cccs1 (centres unmarked) [CBK077753] | 88.3 |
| Cc1cc(C(=O)NC2CCCOC2)c2cccc(Cl)c2n1 (centres unmarked) [CBK282459] | 95.3 |

| SMILES | viability at 28.5 h, 10 µM [%] |
| --- | --- |
| NC(=O)Cn1cc(CN2CCC(c3ccccc3)C2)c2ccccc21 (centres unmarked) [CBK282803] | 92.3 |
| CCCN1CCc2c(sc3nc(SCC(=O)c4ccccc4)n(-c4ccccc4)c(=O)c23)C1 [CBK262587] | 109 |
| CCCNc1cncc(-c2ccc(OCC)cc2)n1 [CBK065845] | 99.8 |
| OC1(c2ccccc2)CCN(Cc2ccccc2-n2cccn2)C1 (centres unmarked) [CBK282795] | 96.5 |
| [O-][S+](c1ccc(Cl)c(Cl)c1)c1cc2c(N3CCCNCC3)nccc2s1 (centres unmarked) [CBK038304C] | 71.2 |
| CN(C)c1cccc(-c2cncc(NCc3ccco3)n2)c1 [CBK065555] | 106 |
| COc1cncc(-c2cc(N3CCN(S(=O)(=O)c4ccc(Cl)cc4)CC3)ncn2)c1 [CBK091162] | 108 |
| CC(=O)Nc1ccc(Nc2cc(-c3ccc(CC(C)C)cc3)ncn2)cc1 [CBK090723] | 99.4 |
| Cc1nccn1CCCn1cncc1-c1ccc2c(c1)CCC(C)N2C (centres unmarked) [CBK281811] | 91 |
| CC1CCCCC1NC(=O)Cn1ncc2cccn2c1=O (centres unmarked) [CBK283673] | 98.7 |
| CCOC(=O)/C(=N/Nc1cccc(C)c1)c1csc(N)n1 [CBK261059] | 97.9 |
| CC(NC(=O)CCc1ccncc1)c1ccc2c(c1)CCCO2 (centres unmarked) [CBK281624] | 88.3 |
| Cc1cc(C)c2nc(O)nc(O)c2c1 [CBK017986] | 94.4 |
| Cc1cc(C)cc(NC(=O)C2C3C4CCC(C4)C23)c1 (centres unmarked) [CBK058768] | 108 |
| CC(C)(C)C1=CC2=NC3(CCC3)C3C[C@](O)(COCc4ccccc4)[C@@H](O)[C@@H]3N2O1 (some centres unmarked) [CBK303259] | 102 |
| CC1CN(c2ccccc2Br)NC1=O (centres unmarked) [CBK026500] | 96.7 |
| CN1CCC(=NNC(=O)C(=O)NCc2ccco2)CC1 [CBK262341] | 84.6 |
| COc1ccc(C(=O)CN2CCN(CCN3C(=O)c4cccc5cccc(c45)C3=O)CC2)cc1 [CBK074628] | 75.7 |
| O=C(c1ccco1)N1CCN(c2cc(-c3cccc4cccnc34)ncn2)CC1 [CBK091117] | 99.1 |
| Clc1ccc(COc2ccnc(N3CCCNCC3)n2)cc1Cl [CBK091550] | 90 |
| OCc1ccccc1-c1cncc(N2CCCC2CO)n1 (centres unmarked) [CBK065333] | 106 |
| CCCc1nc(NC(CCO)c2ccc(C)cc2)c2cnn(C)c2n1 (centres unmarked) [CBK307309] | 85.3 |

| SMILES | viability at 28.5 h, 10 µM [%] |
| --- | --- |
| CN(C)S(=O)(=O)N(CC(=O)Nc1cccc([N+](=O)[O-])c1)c1ccccc1 [CBK265904] | 90.2 |
| Cn1c(C(=O)NCc2ccccc2)cc2ccccc21 [CBK200195] | 81.7 |
| OCCN(Cc1cccnc1)Cc1cccn1-c1ccccc1Cl [CBK282936] | 89.7 |
| COc1ccccc1N1C(=O)[C@H]2N=C(C(=O)c3cnccn3)N[C@H]2C1=O [CBK021406] | 90.3 |
| Nc1ncc(-c2cccc3cccnc23)nc1N1CCOCC1 [CBK063383] | 93.2 |
| CC(Oc1cccc(Cl)c1)C(=O)Nc1ncccn1 (centres unmarked) [CBK265450] | 90.2 |
| CCOC(=O)c1cnn(C2CCCN(C(=O)c3cscc3C)C2)c1 (centres unmarked) [CBK305385] | 93.1 |
| O=C(NCCOCc1ccc(Cl)cc1)c1cc(-n2cnnc2)ccc1Cl [CBK267939] | 101 |
| CCCNc1nc(Cl)nc(NC(C)(C)C)n1 [CBK091674] | 86.3 |
| Oc1ccc(/C=N/n2c(S)nnc2C(F)(F)F)cc1 [CBK265206] | 98.6 |
| O=C(O)c1nnn(-c2ccccc2)c1-c1ccncc1 [CBK288041] | 95.1 |
| CS(=O)(=O)NC1CCN(S(=O)(=O)c2cc(Cl)cc(Cl)c2)CC1 [CBK306082] | 84.3 |
| CC1=NN(c2cccc(S(=O)(=O)O)c2C(=O)Nc2ccccc2)C(=O)C1 [CBK017343] | 98.4 |
| COc1ccc(-c2cn(-c3ccc4c(c3)CCO4)nn2)cc1 [CBK113027] | 88.5 |
| COc1ccc2c(-c3ccccc3)cc(=O)n(CCS(=O)(=O)Oc3ccccc3)c2c1 [CBK296621] | 84.6 |
| COc1ccc(-n2c(SC(CN3CCCCC3)CN3CCCC3=O)nc3ccccc3c2=O)cc1 (centres unmarked) [CBK264891C] | 87.8 |
| CC(C)(C)c1cc(Br)ccc1OCC(=O)Nc1nc[nH]n1 [CBK263379] | 96.1 |
| Cn1cnnc1SCC(=O)Nc1c(F)cccc1F [CBK295150] | 88.2 |
| CCc1c(C(=O)NC(C)c2cccc(Cl)c2)cnc2cc(O)nn12 (centres unmarked) [CBK291243] | 95 |
| COc1cc(Nc2cc(-n3nc(C)cc3C)ncn2)cc(OC)c1OC [CBK288594] | 93.2 |
| CN(C/C=C/c1ccccc1[N+](=O)[O-])CCc1ccccn1 [CBK261890] | 92.5 |
| CC1CCN(S(=O)(=O)c2ccc(NC(=O)COc3ccc4ccccc4c3)cc2)CC1 [CBK264969] | 96.7 |

| SMILES | viability at 28.5 h, 10 µM [%] |
| --- | --- |
| CC1(O)CCN(Cc2nnnn2-c2ccc(S(C)(=O)=O)cc2)CC1 [CBK304166] | 99.2 |
| CSc1ccccc1-n1nnnc1SCc1ccccc1 [CBK099033] | 83 |
| CN1C[C@@H](NC(=O)Nc2ccccc2)C[C@H]1c1nc(Cc2ccccc2)no1 [CBK288860] | 85.2 |
| CCOC(=O)N1CCC(NC(=O)c2ccc(Nc3cncc(-c4ccc(O)cc4)n3)cc2)CC1 [CBK115694] | 107 |
| CC(=O)Nc1ccc(S(=O)(=O)N(C)c2ccccn2)cc1Cl [CBK044789] | 94.5 |
| CN(C)CCCN(C(=O)c1ccccc1)c1nc2ccc(F)cc2s1 [CBK287640] | 97.4 |
| CS(=O)(=O)N1CC2(CCN(CCCCC3NC(=O)NC3=O)CC2)c2ccccc21 (centres unmarked) [CBK126684] | 97.1 |
| OCC1CCCN1c1nc(-c2ccc(Oc3ccccc3)cc2)cn2ccnc12 (centres unmarked) [CBK066713] | 100 |
| CCC(C)N1CCN(S(=O)(=O)c2ccccc2[N+](=O)[O-])CC1 (centres unmarked) [CBK264270G] | 97.2 |
| Cc1nc(NCc2ccc(C(F)(F)F)cc2)nc(N2CCOCC2)n1 [CBK023863] | 91.9 |
| FC(F)(F)c1cccc(Sc2ccc(Cl)c(Cl)c2)n1 [CBK089608] | 91.2 |
| CC1CCc2c(sc3ncnc(OCC(=O)N4CCNC4=O)c23)C1 (centres unmarked) [CBK305775] | 96.1 |
| O=C(O)COc1ccccc1/C=N/n1c(S)nnc1-c1ccncc1 [CBK265253] | 111 |
| Cc1ccc(Cn2ncc3c(NCCCN4CCOCC4)ncnc32)cc1 [CBK077470] | 94.4 |
| Cn1c(=O)cc(Oc2ccc(F)cc2)c2ccccc21 [CBK281451] | 88.1 |
| COc1ccccc1NC(=O)c1[nH]nc(O)c1Cc1c(Cl)cccc1Cl [CBK107846] | 90.2 |
| COc1ccc(-c2ccc3c(c2)C(=O)N2CCN(C(=O)CC(C)(C)C)C[C@@H]2C(=O)N3)cc1 [CBK289584] | 94.6 |
| Cn1c2ccccc2c2cc(C(O)(CC(=O)CC(O)(c3ccc4c(c3)c3ccccc3n4C)C(F)(F)F)C(F)(F)F)ccc21 (centres unmarked) [CBK262254] | 88 |
| CC(=O)N1CCc2c([nH]c3cc(F)ccc23)C12CCN(CCC#N)CC2 [CBK039692] | 95.7 |
| Cc1cc(C)cc(NC(=O)CSc2ncccn2)c1 [CBK287577] | 97.8 |
| COc1ccc(CN2CCC(Oc3nccnc3OCc3cc(C)on3)CC2)cc1 [CBK082953T] | 93.7 |
| c1csc(-c2cncc(NCc3ccncc3)n2)c1 [CBK065583] | 94.6 |

same assay, conditions: human, hela cells, % viability, bulk resorufin, single well

| SMILES | viability at 28.5 h, 10 µM [%] |
| --- | --- |
| O=C(O)c1cccc(NC(=O)c2cc([N+](=O)[O-])cc([N+](=O)[O-])c2)c1 [CBK261555] | 92.8 |
